Data from PMC9890698 (BMC Biology, 2023).
Where “and” joins values, the source holds several entries; their conditions need not be identical. Equal values may be shown once.

Assays:
[1] = system: washed human platelets (P2Y1-R/Gαq signaling); experiment: IP1 accumulation assay (HTRF) in washed human platelets; assay type: cell-based; details: for IP1 concentration (% of basal mean at 30 minutes): Fig. S4a, MRS2179 10 µM, individual replicates
Experimental: As performed in HEK293T cells, we thus quantified intracellular IP1 levels to monitor Gαq protein-dependent signaling pathways.
Human platelets were prepared from adult healthy volunteers free of antiplatelet or anti-inflammatory medication since at least ten days. […] After two steps of centrifugation and suspension in Tyrode’s buffer (140 mM NaCl, 5 mM KCl, 5 mM KH2PO4, 1 mM MgSO4, 10 mM HEPES, 5 mM glucose and 0.35% (w/v) BSA, pH 6,7), washed platelets were suspended in the same buffer adjusted to pH 7.4 and containing 1 mM CaCl2. The final platelet suspension was adjusted to 3.10^8 platelets/mL and rested for 45 min in the presence of 0.02 U/mL apyrase and 10 μM indomethacin at 37 °C prior experiments. PGI2 (0.5 μM) was added before centrifugation steps to avoid platelet activation.
Quantification of intracellular IP1 was performed using the HTRF (Homogeneous Time Resolved Fluorescence) IP1 competitive immunoassay (IP-One Tb kit. Cisbio. France) according to the manufacturer’s instructions. Briefly, 20,000 HEK293T/17 cells or 3.10^6 platelets were distributed in a 384-well white microplate (Greiner) and incubated with the indicated molecules for 30 min or 2 h at 37 °C in the presence of 50 mM of LiCl to prevent IP1 degradation. After addition of d2-labeled IP1 (acceptor) and anti-IP1-Cryptate (donor) for 1 h, the specific FRET signals were calculated by the fluorescence ratio of the acceptor and donor emission signal (665/620 nm) collected using a modified Infinite F500 (Tecan Group Ltd). Conversion of the HTRF ratio of each sample into IP1 concentrations was performed on the basis of a standard curve to determine the linear dynamic range of the assay.

Human P2Y1-R = molecular target: T1, Human P2Y1-R (Homo sapiens, UniProt P47900); experiment: β-arrestin 2 recruitment BRET1 assay (β-arrestin 2-RLuc / P2Y1-R-Venus) in HEK293T cells; assay type: cell-based; details: for MRS2179-modulated BRET: Figure 3g
T1 construct: expressed in transfected cells; host or cells: HEK293T/17
Source text: We assessed β-arrestin 2 recruitment to the receptor using BRET^1 assay. The assay measures the interaction between β-arrestin 2 fused to the Renilla reniformis luciferase (RLuc) energy donor and the receptor fused to fluorescent Venus energy acceptor (Fig. 3a). The recruitment of cytosolic β-arrestin 2 to the receptor at the plasma membrane in the presence of an agonist will promote a significant increase of the BRET signal compared to the basal state, reflecting the close proximity between the β-arrestin 2 energy donor and the receptor energy acceptor [22].
Human P2Y1-R (NCBI Reference Sequence: NM_002563.2) and P2Y12-R (NCBI Reference Sequence: NM_022788.3) were fused to double Myc epitope and rat AT1-R (NCBI Reference Sequence: NM_030985.4) to HA tag in N-terminus extracellular region. Alternatively, receptors were also fused to Venus tag in C-terminus intracellular region. Plasmids encoding Gαq-RLuc8, GFP2-Gγ2 and untagged Gβ1 were previously described. ADP was purchased from Sigma-Aldrich/Merck (Darmstadt, Germany). […] The Gq inhibitor (FR900359) was kindly supplied by Evi Kostenis (University of Bonn. Germany).
G protein activation and β-arrestin 2 recruitment were performed as previously described. Briefly, vectors encoding receptors, Gαq-RLuc8, GFP2-Gγ2, Gβ1, or β-arrestin 2 were transiently cotransfected into HEK293T/17 cells as indicated in the figure legends. Forty-eight hours after transfection, cells were washed and resuspended in PBS containing 0.1% (w/v) glucose at room temperature and then distributed (80 μg proteins/well) in a 96-well microplate (PerkinElmer). For G protein activation experiments (BRET^2), cells were incubated in the absence (basal BRET signal) or in the presence of ligand for 1 minute. BRET signal between RLuc8 and GFP2 was measured after addition of the luciferase substrate coelenterazine 400a (5 μM). For β-arrestin 2 recruitment (BRET^1), cells were stimulated with ligands for 5 or 15 min. BRET signal was recorded after incubation with coelenterazine h (5 μM) for 8 min. For kinetics studies, BRET signal between RLuc and Venus was recorded at 20-s intervals at basal state for the 2 first minutes and then for 5 min after ligand injection. For saturation curves (BRET^1), the expression level of Venus- or RLuc-tagged protein was determined by direct measurement of total fluorescence and luminescence respectively. Total fluorescence was first measured with an excitation filter at 485 nm and an emission filter at 520 nm. Then, the same sample was incubated for 8 minutes with 5 μM coelenterazine h and the total luminescence was measured. BRET^2 and BRET^1 readings were collected using a modified Infinite F500 (Tecan Group Ltd). The BRET^2 signal was calculated by the ratio of emission of GFP2 (510–540 nm) to RLuc8 (370–450 nm) and the BRET^1 signal by the ratio of emission of Venus (520–570 nm) to RLuc (370–480 nm). Sometimes, results are expressed as the Net BRET computed by deducting the BRET background signal (obtained in the presence of the energy donor alone) from the BRET signal (acquired from cells expressing both the energy donor and acceptor).

[2] = Fig. 3g, inverse agonism on β-arrestin 2 recruitment, 15 min

T1 sequence (P47900 whole entry): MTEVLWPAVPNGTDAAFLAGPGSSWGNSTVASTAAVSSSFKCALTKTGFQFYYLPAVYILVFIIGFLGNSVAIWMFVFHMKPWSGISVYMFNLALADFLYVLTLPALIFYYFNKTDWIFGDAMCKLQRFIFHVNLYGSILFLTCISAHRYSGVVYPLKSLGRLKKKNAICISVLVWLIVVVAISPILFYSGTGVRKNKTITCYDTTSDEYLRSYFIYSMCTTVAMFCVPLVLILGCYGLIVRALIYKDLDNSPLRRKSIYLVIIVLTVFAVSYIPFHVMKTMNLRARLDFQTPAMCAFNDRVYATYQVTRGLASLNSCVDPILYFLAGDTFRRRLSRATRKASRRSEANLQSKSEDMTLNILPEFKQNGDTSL

SMILES: CNc1ncnc2c1ncn2[C@H]1C[C@H](OP(=O)(O)O)[C@@H](COP(=O)(O)O)O1 [MRS2179]
- IP1 concentration (% of basal mean at 30 minutes) ([1]; 30 minutes): 61.0057 % of basal mean at 30 minutes and 99.6481 % of basal mean at 30 minutes and 82.2183 % of basal mean at 30 minutes and 56.7485 % of basal mean at 30 minutes
- IP1 concentration (% of basal mean at 30 minutes) ([1]; 2 hours): 94.0172 % of basal mean at 30 minutes and 113.32 % of basal mean at 30 minutes and 105.9 % of basal mean at 30 minutes and 70.9752 % of basal mean at 30 minutes
- IP1 concentration (% matched basal values) ([1]; human platelets, MRS2179 10 μM, 2 h, individual donors): 129.303 % matched basal values and 123.213 % matched basal values and 123.793 % matched basal values and 163.625 % matched basal values and 131.963 % matched basal values and 159.513 % matched basal values and 140.89 % matched basal values and 171.298 % matched basal values and 155.836 % matched basal values and 154.357 % matched basal values and 192.203 % matched basal values and 190.967 % matched basal values and 205.13 % matched basal values and 115.394 % matched basal values and 124.227 % matched basal values and 114.571 % matched basal values
- Effect on IP1 levels ([1]; washed human platelets, ADP 100 μM, antagonists 10 μM, Gq inhibitor 100 nM, 2 h, apyrase 0.02 U/mL, result in words): decreased IP1 levels
- Effect on β-arrestin 2 recruitment at decreased (low) P2Y1-R expression (Human P2Y1-R; 10 μM, 15 min, decreasing amounts of P2Y1-R-Venus vector, result in words): loss of the inverse agonist efficacy
- Maximal efficacy (Emax), MRS2179-modulated BRET (Human P2Y1-R; Fig. 3g, 15 min stimulation, difference in BRET signal with and without ligand): -0.1192 ± 0.007029
- EC50 (Human P2Y1-R; [2]): 4.56 µM
- pEC50 ± s.e.m. (Human P2Y1-R; [2]): 5.341 ± 0.1565
- MRS2179-modulated BRET (Human P2Y1-R; [MRS2179] 1.00E-04 M, individual replicates): -0.1343 and -0.1251 and -0.1075 and -0.1104 and -0.1004 and -0.1271
- MRS2179-modulated BRET (Human P2Y1-R; [MRS2179] 1.00E-05 M, individual replicates): -0.08399 and -0.08788 and -0.08039 and -0.09033 and -0.07645 and -0.09139
- MRS2179-modulated BRET (Human P2Y1-R; [MRS2179] 1.00E-06 M, individual replicates): -0.02625 and -0.04054 and -0.04836 and -0.05476 and -0.05132 and -0.07031
- MRS2179-modulated BRET (Human P2Y1-R; [MRS2179] 1.00E-07 M, individual replicates): -0.0171 and -0.02456 and -0.02615 and -0.04428 and -0.0209 and -0.07223
- MRS2179-modulated BRET (Human P2Y1-R; [MRS2179] 1.00E-08 M, individual replicates): -0.003323 and -0.0198 and -0.01307 and -0.01788 and -0.04276 and -0.0269
- MRS2179-modulated BRET (Human P2Y1-R; [MRS2179] 1.00E-09 M, individual replicates): -0.00593 and -0.03381 and -0.01728 and -0.01928 and -0.03943 and -0.05623
- MRS2179-modulated BRET (Human P2Y1-R; [MRS2179] 1.00E-10 M, individual replicates): -0.003915 and -0.01627 and -0.01217 and -0.01765 and -0.03594 and -0.03393
- b-arrestin 2 signaling, Ligand-modulated BRET (% of maximum MRS2179 mean value) (Human P2Y1-R; Figure 4b, [Ligand] 1.00E-04 M, individual replicates): -103.593 % of maximum MRS2179 mean value and -98.5011 % of maximum MRS2179 mean value and -96.2574 % of maximum MRS2179 mean value and -88.0215 % of maximum MRS2179 mean value and -113.627 % of maximum MRS2179 mean value
